Measured values taken from ChEMBL document CHEMBL5724914, “Linking interpersonal differences in gut microbiota composition and drug biotransformation activity” (2024).

What was measured:
[1] = (§1) The drug is tested on Z-025 corresponding to rabbit gut metagenome with ENA study accession number: PRJEB37062 and ENA sample accession number: ERS12561824 for biotransformation under anaerobic condition. The drug concentrations were measured over 9 timepoints collected between 0 and 24 hours of incubation by liquid-chromatography-coupled mass spectrometry (LC–MS); settings: 2 µM
[2] = as §1, with “Z-021” for “Z-025”, “to” for “to rabbit gut”, “ERS12561820” for “ERS12561824”; settings: 2 µM
[3] = as §1, with “Z-018” for “Z-025”, “pig” for “rabbit”, “ERS12561817” for “ERS12561824”; settings: 2 µM
[4] = as §1, with “Z-017” for “Z-025”, “mouse” for “rabbit”, “ERS12561816” for “ERS12561824”; settings: 2 µM
[5] = as §1, with “Z-013” for “Z-025”, “ERS12561813” for “ERS12561824”; settings: 2 µM
[6] = as §1, with “Z-012” for “Z-025”, “to” for “to rabbit gut”, “ERS12561812” for “ERS12561824”; settings: 2 µM
[7] = as §1, with “Z-008” for “Z-025”, “to” for “to rabbit gut”, “ERS12561808” for “ERS12561824”; settings: 2 µM
[8] = as §1, with “Z-006” for “Z-025”, “mouse” for “rabbit”, “ERS12561806” for “ERS12561824”; settings: 2 µM
[9] = as §1, with “WLS-098” for “Z-025”, “human” for “rabbit”, “ERS12561754” for “ERS12561824”; settings: 2 µM
[10] = as §1, with “WLS-077” for “Z-025”, “human” for “rabbit”, “ERS12561750” for “ERS12561824”; settings: 2 µM
[11] = as §1, with “WLS-007” for “Z-025”, “human” for “rabbit”, “ERS12561742” for “ERS12561824”; settings: 2 µM
[12] = human gut metagenome, 24 h, 2 µM
[13] = human gut metagenome, 24 h, 2 µM; remark: listed apart in the source
[14] = human gut metagenome, 24 h, 2 µM; remark: listed apart in the source
[15] = human gut metagenome, 24 h, 2 µM; remark: listed apart in the source
[16] = human gut metagenome, 24 h, 2 µM; remark: listed apart in the source
[17] = human gut metagenome, 24 h, 2 µM; remark: listed apart in the source
[18] = human gut metagenome, 24 h, 2 µM; remark: listed apart in the source
[19] = human gut metagenome, 24 h, 2 µM; remark: listed apart in the source
[20] = human gut metagenome, 24 h, 2 µM; remark: listed apart in the source

Measured: Bacterial Biotransformation
Note: call rule not given here.

CCN(CC)CCNC(=O)c1cc(Cl)c(N)cc1OC [METOCLOPRAMIDE]
Compound metabolized: [20]
Compound NOT metabolized: all other assays above

Nc1nc2ccc(OC(F)(F)F)cc2s1 [RILUZOLE]
Compound NOT metabolized: [1] | [4] | [5] | [8] | [12]
Compound metabolized: all other assays above

CCCCC(=O)N(Cc1ccc(-c2ccccc2-c2nnn[nH]2)cc1)[C@H](C(=O)O)C(C)C
Compound NOT metabolized: [1] | [3] | [4] | [5] | [6] | [7] | [8] | [17]
Compound metabolized: all other assays above

Cc1ccc(-c2nc3ccc(C)cn3c2CC(=O)N(C)C)cc1 [ZOLPIDEM]
Compound metabolized: [9] | [13] | [18] | [20]
Compound NOT metabolized: all other assays above

Fc1ccc([C@@H]2CCNC[C@H]2COc2ccc3c(c2)OCO3)cc1 [PAROXETINE]
Compound metabolized: [2] | [9] | [12] | [13] | [15] | [19] | [20]
Compound NOT metabolized: all other assays above

NC12CC3CC(CC(C3)C1)C2 [AMANTADINE]
Compound metabolized: [1]
Compound NOT metabolized: all other assays above

CCC(=O)NCC[C@@H]1CCc2ccc3c(c21)CCO3 [RAMELTEON]
Compound NOT metabolized: [1] | [4] | [11] | [14] | [15] | [16] | [18]
Compound metabolized: all other assays above

CC(CN1c2ccccc2Sc2ccccc21)N(C)C (stereo not given) [PROMETHAZINE]
Compound metabolized: [1] | [3] | [9] | [15]
Compound NOT metabolized: all other assays above
